Reference: the supplement of paper PMC10307832

How the values were obtained:
Assay in all cases: relative viability (nuclei count vs DMSO), 5 days (fraction); higher = more cells survive
[1] = compound: C1CSC2=C(C(=O)N1)SC3=C2C=C(C=C3)O [kb NB 142-70] + CC(=O)c1c(C)c2cnc(Nc3ccc(N4CCNCC4)cn3)nc2n(C2CCCC2)c1=O [Palbociclib] (partner 0.5 µM)
Outline: (§1)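 For relative viability, nuclei counts in treated wells were divided by those in vehicle wells. Lung cancer cell lines had been pin-tool dosed in 1536-well plates the day after seeding and cultured for 5 days, then fixed and stained in one step (final 0.05% Triton X-100, 1% formaldehyde, 1 ug/ml Hoechst) and imaged at 4×. Doses were one drug alone or a fixed anchor-drug dose plus five library-drug doses (not always all listed) in √10 steps, and values are duplicate-plate medians.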

[2] = compound: C1CSC2=C(C(=O)N1)SC3=C2C=C(C=C3)O [kb NB 142-70] + CCNC(=O)c1noc(-c2cc(C(C)C)c(O)cc2O)c1-c1ccc(CN2CCOCC2)cc1 [Luminespib] (partner 0.01 µM)
Outline: as §1

[3] = compound: NCC(=O)Nc1ccc(-n2nc(C(F)(F)F)cc2-c2ccc3c(ccc4ccccc43)c2)cc1 + CC(=O)Nc1cccc(-n2c(=O)n(C3CC3)c(=O)c3c(Nc4ccc(I)cc4F)n(C)c(=O)c(C)c32)c1 [Trametinib] (partner 0.02 µM)
Outline: as §1

[4] = compound: NCC(=O)Nc1ccc(-n2nc(C(F)(F)F)cc2-c2ccc3c(ccc4ccccc43)c2)cc1 + CC(=O)c1c(C)c2cnc(Nc3ccc(N4CCNCC4)cn3)nc2n(C2CCCC2)c1=O [Palbociclib] (partner 0.5 µM)
Outline: as §1

| Cell Line | relative viability ([1]; first compound 0.1 µM) | relative viability ([1]; first compound 1 µM) | relative viability ([1]; first compound 3.162 µM) | relative viability ([2]; first compound 0.1 µM) | relative viability ([2]; first compound 1 µM) | relative viability ([2]; first compound 3.162 µM) | relative viability ([3]; first compound 0.02 µM) | relative viability ([3]; first compound 0.06325 µM) | relative viability ([3]; first compound 0.2 µM) | relative viability ([3]; first compound 0.6325 µM) | relative viability ([3]; first compound 2 µM) | relative viability ([4]; first compound 0.02 µM) | relative viability ([4]; first compound 0.06325 µM) | relative viability ([4]; first compound 0.2 µM) | relative viability ([4]; first compound 0.6325 µM) | relative viability ([4]; first compound 2 µM) |
| --- | --- | --- | --- | --- | --- | --- | --- | --- | --- | --- | --- | --- | --- | --- | --- | --- |
| NCI-H1975 | 0.599 | 0.662 | 0.435 | 0.286 | 0.197 | 0.106 | 0.399 | 0.39 | 0.405 | 0.32 | 0.284 | 0.657 | 0.61 | 0.615 | 0.485 | 0.586 |
| NCI-H1993 | 0.688 | 0.583 | 0.638 | 1.03 | 0.858 | 0.673 | 0.494 | 0.41 | 0.586 | 0.64 | 0.515 | 0.658 | 0.599 | 0.808 | 0.696 | 0.706 |
| NCI-H2009 | 0.286 | 0.304 | 0.285 | 1.15 | 1.05 | 0.685 | 0.265 | 0.35 | 0.316 | 0.275 | 0.301 | 0.236 | 0.147 | 0.265 | 0.186 | 0.272 |
| NCI-H2023 | 0.389 | 0.379 | 0.257 | 0.747 | 0.661 | 0.272 | 0.552 | 0.709 | 0.702 | 0.513 | 0.358 | 0.461 | 0.414 | 0.391 | 0.345 | 0.297 |
| NCI-H2085 | 0.466 | 0.452 | 0.367 | 0.383 | 0.358 | 0.339 | 0.402 | 0.623 | 0.507 | 0.547 | 0.626 | 0.533 | 0.477 | 0.474 | 0.469 | 0.473 |
| NCI-H2087 | 0.282 | 0.252 | 0.215 | 0.183 | 0.164 | 0.116 | 0.155 | 0.209 | 0.214 | 0.181 | 0.185 | 0.256 | 0.278 | 0.262 | 0.249 | 0.24 |
| NCI-H2126 | 0.364 | 0.373 | 0.345 | 0.797 | 0.878 | 0.879 | 0.586 | 0.599 | 0.626 | 0.553 | 0.54 | 0.369 | 0.334 | 0.369 | 0.385 | 0.327 |
| NCI-H2170 | 0.413 | 0.44 | 0.392 | 0.578 | 0.728 | 0.521 | 0.89 | 0.91 | 0.989 | 0.884 | 0.912 | 0.374 | 0.41 | 0.391 | 0.38 | 0.355 |
| NCI-H2228 | 0.819 | 0.719 | 0.446 | 0.176 | 0.13 | 0.119 | 0.559 | 0.593 | 0.548 | 0.572 | 0.553 | 0.711 | 0.78 | 0.802 | 0.653 | 0.656 |
| NCI-H2342 | 0.547 | 0.497 | 0.589 | 0.625 | 0.761 | 0.719 | 0.887 | 0.877 | 0.965 | 0.833 | 0.776 | 0.627 | 0.552 | 0.479 | 0.494 | 0.523 |
